Measured values taken from patent US20130109635A1, “Humanin Decreases Liver Fat and Visceral Fat Accumulation” (priority 2011, published 2013).

What was measured:
CPT1b = assay: Liver gene expression in HFD animals: CPT1b; assay type: in vivo, mice; settings: data not shown
Description: (§1) To understand the mechanisms through which Humanin decreases liver lipid content, representative genes involved in lipid synthesis (SREBP-1, FAS), lipid oxidation (CPT1b) and lipid packaging and export from liver were studied. […] The role of MTTP was confirmed by studying enzyme activity.

FAS = assay: Liver gene expression in HFD animals: FAS; assay type: in vivo, mice; settings: data not shown
Description: as §1

SREBP-1 = assay: Liver gene expression in HFD animals: SREBP-1; assay type: in vivo, mice; settings: data not shown
Description: as §1

Apo B = assay: Liver gene expression in HFD animals: Apo B; assay type: in vivo, mice; settings: livers of HFD animals, HNG 2 mg/kg daily
Description: as §1

[1] = tested on: triglyceride secretion from liver; assay: Acute ICV infusion of HNG with tyloxapol injection, plasma TG levels, rats; assay type: in vivo, Sprague-Dawley rats
Procedure: (§2) The effect of humanin analog, HNG, on hepatic lipid fluxes was investigated. In the acute study, HNG was infused into third ventricle (ICV) of awake, unstressed and chronically catheterized Sprague-Dawley rats and C57BLK6 mice and studied plasma triglyceride (TG) levels following an injection of Tyloxapol (Triton WR1339, Sigma-Aldrich Corp, St. Louis, Mo.), an inhibitor of TG clearance. Groups of animals were also challenged with high fat diet (HFD) of 60% fat for one month and were treated with either daily injections of saline or of HNG (2 mg/kg). Body weight and Food intake were monitored twice a week. At the end of one month, liver fat was assessed both by histology and estimation of tissue triglycerides and plasma was collected. Total amount of visceral fat (VF) was determined and the specific depots were meticulously dissected and weighed. Tissue samples were snap-frozen for subsequent analysis.
Acute effects of Humanin on liver fluxes: The effect of HN was studied in acute and chronic treatment models. […]
(§3) With infusion of tyloxapol, there was a steady increase in plasma triglyceride levels in both groups from inhibition of TG clearance. […] The rate of TG secretion was calculated in the animals based on plasma triglyceride levels at 0 and 120 min time points using the following equation: secretion rate of TG/hr mg/min=(TG at 120 min−TG at 0 min)/number of hours.

MTTP = MTTP enzyme activity in liver of HFD animals (Roar Biomedical); assay type: in vivo, mice; settings: HNG 2 mg/kg daily, p<0.01
Description: as §1

[2] = tested on: Microsomal triglyceride transport protein (MTTP); assay: Liver gene expression in HFD animals: MTTP; assay type: in vivo, mice; settings: livers of HFD animals, HNG 2 mg/kg daily
Description: as §1

[3] = High fat diet (60% fat) for one month with daily injections of HNG: food intake, body weight, visceral fat, liver fat, serum lipids; assay type: in vivo, mice; settings: HNG 2 mg/kg daily
Procedure: as §2
Chronic effects of Humanin on liver lipid content: Groups of animals were challenged with high fat diet (HFD-60% fat) for one month and were treated with either daily injections of saline or HNG (2 mg/kg). At the end of one month, liver fat were assessed both by histology and estimation of tissue triglycerides.

[4] = tested on: triglyceride secretion from liver; assay: Acute ICV infusion of HNG with tyloxapol injection, plasma TG levels, mice; design: species or system C57BLK6 mice; settings: mouse, in vivo
Procedure: as §2, §3

MTTP activity vs control (MTTP)	Sequence	expression of CPT1b vs control (CPT1b)	expression of FAS vs control (FAS)	expression of SREBP-1 vs control (SREBP-1)	expression of Apo B vs control (Apo B)	serum TG levels at 120 min ([1]; 120 min after tyloxapol 600 mg/kg, p<0.05 vs aCSF 4.33±0.33)	rate of TG secretion ([1]; (TG at 120 min − TG at 0 min)/number of hours, p<0.05 vs aCSF 2.23±0.16)	expression of MTTP vs control [2]	visceral fat (VF) gain vs control ([3]; HFD for 4 weeks)	weight gain vs control ([3]; HFD for 4 weeks)	liver fat (hepatic triglyceride content) ([3]; HFD one month, p<0.05 vs control 70.83±3.74)	triglyceride secretion from liver [4]
	MAPRGFSCLLLLTSEIDLPVKRRA (HOMO SAPIENS) [HN, humanin peptide]	no differences	no differences	no differences								
significantly higher	MAPRGFSCLLLLTGEIDLPVKRRA (ANALOG OF HUMAN HUMANIN PEPTIDE) [HNG]				significantly higher	5.5 ± 0.29 mg/mL	2.7 ± 0.2 mg/mL/h	significantly higher	gained significantly less VF	gained significantly less weight	59.78±2.24 μg/mg of tissue	increases
